The test concerns 653999-131-R-J2-PDC complex spheroids, growth inhibition. As to the kind of experiment: Anticancer human tumor 653999-131-R-J2-PDC patient-derived lung adenocarcinoma cell line growth inhibition [RAS]. Conditions: for viability, T/C: stronger effect = lower value. In short, it runs like this: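 Agents were tested in combination matrices in half-log decrements from a top concentration at or near clinical Cmax (10 microM if undetermined). Targets were multi-cell spheroids of tumour lines plus HUVEC and MSC stromal cells.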
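Also: spheroids exposed to the agents for seven days before the readout.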

For orientation: IC50 means the concentration that inhibits the measured activity by half. The viability, T/C is the ratio of treated to control. Regarding `C[C@@H](NC(=O)c1ncnc(N)c1Cl)c1ncc(C(=O)Nc2cc(C(F)(F)F)c(Cl)cn2)s1` + CCn1c(-c2cccnc2C(C)OC)c2c3cc(ccc31)N1CCOC(CC(NC(=O)C(C(C)C)N(C)C(=O)C3(F)CCN(C(=O)C#CC(C)(C)N(C)C)CC3)C(=O)N3CCCC(N3)C(=O)OCC(C)(C)C2)C1, the IC50 is, setting by setting: (curve of first compound, second compound 0.000949 µM) greater than 10 µM; (curve of first compound, second compound 0.003 µM) greater than 10 µM; (curve of first compound, second compound 0.00949 µM) greater than 10 µM; (curve of first compound, second compound 0.03 µM) greater than 10 µM; (curve of first compound, second compound 0.0949 µM) greater than 10 µM; (curve of first compound, second compound 0.3 µM) greater than 10 µM. For the same compound, the viability, T/C runs as follows: (second compound 0.000949 µM, first compound 0.0316 µM) 95.5%; (second compound 0.000949 µM, first compound 0.1 µM) 123%; (second compound 0.000949 µM, first compound 0.316 µM) 95.5%; (second compound 0.000949 µM, first compound 1 µM) 101%; (second compound 0.000949 µM, first compound 3.16 µM) 106%; (second compound 0.000949 µM, first compound 10 µM) 83.6%. Also, the viability, T/C reads like this: (second compound 0.003 µM, first compound 0.0316 µM) 105%; (second compound 0.003 µM, first compound 0.1 µM) 104%; (second compound 0.003 µM, first compound 0.316 µM) 126%; (second compound 0.003 µM, first compound 1 µM) 104%; (second compound 0.003 µM, first compound 3.16 µM) 100%; (second compound 0.003 µM, first compound 10 µM) 73.7%. The viability, T/C by setting is: (second compound 0.00949 µM, first compound 0.0316 µM) 113%; (second compound 0.00949 µM, first compound 0.1 µM) 115%; (second compound 0.00949 µM, first compound 0.316 µM) 119%; (second compound 0.00949 µM, first compound 1 µM) 112%; (second compound 0.00949 µM, first compound 3.16 µM) 108%; (second compound 0.00949 µM, first compound 10 µM) 94.8%. Moreover, the viability, T/C was 111% (second compound 0.03 µM, first compound 0.0316 µM); 109% (second compound 0.03 µM, first compound 0.1 µM); 107% (second compound 0.03 µM, first compound 0.316 µM); 107% (second compound 0.03 µM, first compound 1 µM); 100% (second compound 0.03 µM, first compound 3.16 µM); 95.3% (second compound 0.03 µM, first compound 10 µM). Also, the viability, T/C reads like this: (second compound 0.0949 µM, first compound 0.0316 µM) 113%; (second compound 0.0949 µM, first compound 0.1 µM) 97.3%; (second compound 0.0949 µM, first compound 0.316 µM) 121%; (second compound 0.0949 µM, first compound 1 µM) 107%; (second compound 0.0949 µM, first compound 3.16 µM) 121%; (second compound 0.0949 µM, first compound 10 µM) 91.5%. Further, the viability, T/C reads like this: (second compound 0.3 µM, first compound 0.0316 µM) 104%; (second compound 0.3 µM, first compound 0.1 µM) 98.9%; (second compound 0.3 µM, first compound 0.316 µM) 93.4%; (second compound 0.3 µM, first compound 1 µM) 121%; (second compound 0.3 µM, first compound 3.16 µM) 101%; (second compound 0.3 µM, first compound 10 µM) 85.9%.
Turning to `CC1(O)CCCC1n1c(=O)c(C(F)F)cc2cnc(NC3CCN(S(C)(=O)=O)CC3)nc21` (stereo not given), the viability, T/C was 89.5% [middle of 4 runs] (compound 0.0316 µM); 69.3% [middle of 4 runs] (compound 0.1 µM); 65.3% [middle of 4 runs] (compound 0.316 µM); 66.8% [middle of 4 runs] (compound 1 µM); 73.8% [middle of 4 runs] (compound 3.16 µM); 35.3% [middle of 4 runs] (compound 10 µM). In addition, the 50% inhibitory concentration (IC50) (curve of compound) is 6.68 µM [middle of 4 runs].
For the compound `C=CC(=O)N1CCN(c2nc(OCC3CCCN3C)nc3c(F)c(-c4nc(N)cc(C)c4C(F)(F)F)c(Cl)cc23)C(C)C1` (stereo not given), the viability, T/C is, setting by setting: (compound 0.0316 µM) 107% [middle of 12 runs]; (compound 0.316 µM) 107% [middle of 12 runs]. The IC50 (compound alone, run of 09/09/2024) was greater than 1 µM and the IC50 (curve of compound) was greater than 1 µM.
`CCN1CCN(Cc2ccc(Nc3ncc(F)c(-c4cc(F)c5nc(C)n(C(C)C)c5c4)n3)nc2)CC1` + C#Cc1c(F)ccc2cc(O)cc(-c3ncc4c(N5CC6CCC(C5)N6)nc(OCC56CCCN5CC(F)C6)nc4c3F)c12: the IC50 (curve of first compound, second compound 0.0316 µM) was greater than 1 µM; the IC50 (curve of first compound, second compound 0.1 µM) is greater than 1 µM; the half-maximal inhibitory concentration (IC50) (curve of first compound, second compound 0.316 µM) came to 0.0282 µM; the IC50 (curve of first compound, second compound 1 µM) was less than 0.00316 µM; the IC50 (curve of first compound, second compound 3.16 µM) was less than 0.00316 µM; the half-inhibitory concentration (IC50) (curve of first compound, second compound 10 µM) is less than 0.00316 µM. Further, the viability, T/C (second compound 0.0316 µM, first compound 0.00316 µM) is 74.8%; the viability, T/C (second compound 0.0316 µM, first compound 0.01 µM) is 88.1%; the viability, T/C (second compound 0.0316 µM, first compound 0.0316 µM) was 65.6%; the viability, T/C (second compound 0.0316 µM, first compound 0.1 µM) is 57.4%; the viability, T/C (second compound 0.0316 µM, first compound 0.316 µM) is 62%; the viability, T/C (second compound 0.0316 µM, first compound 1 µM) is 63.2%. Also, the viability, T/C is 70.5% (second compound 0.1 µM, first compound 0.00316 µM); 71.8% (second compound 0.1 µM, first compound 0.01 µM); 57.2% (second compound 0.1 µM, first compound 0.0316 µM); 52.1% (second compound 0.1 µM, first compound 0.1 µM); 54.8% (second compound 0.1 µM, first compound 0.316 µM); 61% (second compound 0.1 µM, first compound 1 µM). Further, the viability, T/C (second compound 0.316 µM, first compound 0.00316 µM) was 64.7%; the viability, T/C (second compound 0.316 µM, first compound 0.01 µM) was 62.8%; the viability, T/C (second compound 0.316 µM, first compound 0.0316 µM) is 43.8%; the viability, T/C (second compound 0.316 µM, first compound 0.1 µM) was 49.3%; the viability, T/C (second compound 0.316 µM, first compound 0.316 µM) is 50.8%; the viability, T/C (second compound 0.316 µM, first compound 1 µM) was 50.5%. Moreover, the viability, T/C runs as follows: (second compound 1 µM, first compound 0.00316 µM) 37.7%; (second compound 1 µM, first compound 0.01 µM) 43.6%; (second compound 1 µM, first compound 0.0316 µM) 39.9%; (second compound 1 µM, first compound 0.1 µM) 30.9%; (second compound 1 µM, first compound 0.316 µM) 29.9%; (second compound 1 µM, first compound 1 µM) 41.7%. The viability, T/C (second compound 3.16 µM, first compound 0.00316 µM) is 35.3%; the viability, T/C (second compound 3.16 µM, first compound 0.01 µM) is 31.7%; the viability, T/C (second compound 3.16 µM, first compound 0.0316 µM) is 34.4%; the viability, T/C (second compound 3.16 µM, first compound 0.1 µM) is 26.6%; the viability, T/C (second compound 3.16 µM, first compound 0.316 µM) was 33.3%; the viability, T/C (second compound 3.16 µM, first compound 1 µM) is 33.3%. The viability, T/C (second compound 10 µM, first compound 0.00316 µM) was 18.4%; the viability, T/C (second compound 10 µM, first compound 0.01 µM) is 17.3%; the viability, T/C (second compound 10 µM, first compound 0.0316 µM) was 22.3%; the viability, T/C (second compound 10 µM, first compound 0.1 µM) was 19.4%; the viability, T/C (second compound 10 µM, first compound 0.316 µM) is 20.2%; the viability, T/C (second compound 10 µM, first compound 1 µM) is 26.9%.

Source of the values: PubChem BioAssay AID2060886 (Molecular Pharmacology Branch, DTP, NCI, 2025).
